Test results reported in PubChem BioAssay AID1259407 (Chemical Carcinogenesis Research Information System (CCRIS), 2018).
Active and inactive are the calls of the source. How the calls were made is not given here.

System: CCRIS mutagenicity, Ames/micronucleus/aberration tests
Experiment: CCRIS mutagenicity studies
[1] = Test System: AMES SALMONELLA TYPHIMURIUM, Strain/Indicator: TA98, Metabolic Activation: NONE, Method: PREINCUBATION
[2] = Test System: AMES SALMONELLA TYPHIMURIUM, Strain/Indicator: TA98, Metabolic Activation: RAT, LIVER, S-9, AROCLOR 1254, Method: PREINCUBATION
[3] = Test System: AMES SALMONELLA TYPHIMURIUM, Strain/Indicator: TA100, Metabolic Activation: NONE, Method: PREINCUBATION
[4] = Test System: AMES SALMONELLA TYPHIMURIUM, Strain/Indicator: TA100, Metabolic Activation: RAT, LIVER, S-9, AROCLOR 1254, Method: PREINCUBATION
[5] = Test System: AMES SALMONELLA TYPHIMURIUM, Strain/Indicator: TA98, Metabolic Activation: NONE, Method: STANDARD PLATE
[6] = Test System: AMES SALMONELLA TYPHIMURIUM, Strain/Indicator: TA98, Metabolic Activation: RAT, LIVER, S-9, AROCLOR 1254, Method: STANDARD PLATE
[7] = Test System: AMES SALMONELLA TYPHIMURIUM, Strain/Indicator: TA100, Metabolic Activation: NONE, Method: STANDARD PLATE
[8] = Test System: AMES SALMONELLA TYPHIMURIUM, Strain/Indicator: TA100, Metabolic Activation: RAT, LIVER, S-9, AROCLOR 1254, Method: STANDARD PLATE
[9] = Test System: AMES SALMONELLA TYPHIMURIUM, Strain/Indicator: TA1535, Metabolic Activation: NONE, Method: STANDARD PLATE
[10] = Test System: AMES SALMONELLA TYPHIMURIUM, Strain/Indicator: TA1537, Metabolic Activation: NONE, Method: STANDARD PLATE
[11] = Test System: AMES SALMONELLA TYPHIMURIUM, Strain/Indicator: TA1538, Metabolic Activation: NONE, Method: STANDARD PLATE
[12] = Test System: MOUSE LYMPHOMA, Strain/Indicator: L5178Y (TK+/TK-), Metabolic Activation: NONE, Method: SUSPENSION/PLATE

CCCCCC[C@@H](O)C/C=C\CCCCCCCC(=O)O
mutagenic call (Test System: AMES SALMONELLA TYPHIMURIUM, Strain/Indicator: TA98, Metabolic Activation: HAMSTER, LIVER, S-9, AROCLOR 1254, Method: PREINCUBATION): inactive; negative
mutagenic call [1]: inactive; negative
mutagenic call [2]: inactive; negative
mutagenic call (Test System: AMES SALMONELLA TYPHIMURIUM, Strain/Indicator: TA100, Metabolic Activation: HAMSTER, LIVER, S-9, AROCLOR 1254, Method: PREINCUBATION): inactive; negative
mutagenic call [3]: inactive; negative
mutagenic call [4]: inactive; negative
mutagenic call (Test System: AMES SALMONELLA TYPHIMURIUM, Strain/Indicator: TA1535, Metabolic Activation: HAMSTER, LIVER, S-9, AROCLOR 1254, Method: PREINCUBATION): inactive; negative
mutagenic call (Test System: AMES SALMONELLA TYPHIMURIUM, Strain/Indicator: TA1535, Metabolic Activation: NONE, Method: PREINCUBATION): inactive; negative
mutagenic call (Test System: AMES SALMONELLA TYPHIMURIUM, Strain/Indicator: TA1535, Metabolic Activation: RAT, LIVER, S-9, AROCLOR 1254, Method: PREINCUBATION): inactive; negative
mutagenic call (Test System: AMES SALMONELLA TYPHIMURIUM, Strain/Indicator: TA1537, Metabolic Activation: HAMSTER, LIVER, S-9, AROCLOR 1254, Method: PREINCUBATION): inactive; negative
mutagenic call (Test System: AMES SALMONELLA TYPHIMURIUM, Strain/Indicator: TA1537, Metabolic Activation: NONE, Method: PREINCUBATION): inactive; negative
mutagenic call (Test System: AMES SALMONELLA TYPHIMURIUM, Strain/Indicator: TA1537, Metabolic Activation: RAT, LIVER, S-9, AROCLOR 1254, Method: PREINCUBATION): inactive; negative

O=C1c2ccc3ccccc3c2-c2c1ccc1ccccc21
mutagenic call [5]: inactive; negative
mutagenic call [6]: active; positive
mutagenic call [7]: inactive; negative
mutagenic call [8]: active; positive

O=C(O)CCc1ccccc1
mutagenic call (Test System: AMES SALMONELLA TYPHIMURIUM, Strain/Indicator: TA98, Metabolic Activation: HAMSTER, LIVER, S-9, AROCLOR 1254, Method: STANDARD PLATE): inactive; negative
mutagenic call [5]: inactive; negative
mutagenic call [6]: inactive; negative
mutagenic call (Test System: AMES SALMONELLA TYPHIMURIUM, Strain/Indicator: TA100, Metabolic Activation: HAMSTER, LIVER, S-9, AROCLOR 1254, Method: STANDARD PLATE): inactive; negative
mutagenic call [7]: inactive; negative
mutagenic call [8]: inactive; negative
mutagenic call (Test System: AMES SALMONELLA TYPHIMURIUM, Strain/Indicator: TA1535, Metabolic Activation: HAMSTER, LIVER, S-9, AROCLOR 1254, Method: STANDARD PLATE): inactive; negative
mutagenic call [9]: inactive; negative
mutagenic call (Test System: AMES SALMONELLA TYPHIMURIUM, Strain/Indicator: TA1535, Metabolic Activation: RAT, LIVER, S-9, AROCLOR 1254, Method: STANDARD PLATE): inactive; negative
mutagenic call (Test System: AMES SALMONELLA TYPHIMURIUM, Strain/Indicator: TA1537, Metabolic Activation: HAMSTER, LIVER, S-9, AROCLOR 1254, Method: STANDARD PLATE): inactive; negative
mutagenic call [10]: inactive; negative
mutagenic call (Test System: AMES SALMONELLA TYPHIMURIUM, Strain/Indicator: TA1537, Metabolic Activation: RAT, LIVER, S-9, AROCLOR 1254, Method: STANDARD PLATE): inactive; negative
mutagenic call (Test System: AMES SALMONELLA TYPHIMURIUM, Strain/Indicator: TA1538, Metabolic Activation: HAMSTER, LIVER, S-9, AROCLOR 1254, Method: STANDARD PLATE): inactive; negative
mutagenic call [11]: inactive; negative
mutagenic call (Test System: AMES SALMONELLA TYPHIMURIUM, Strain/Indicator: TA1538, Metabolic Activation: RAT, LIVER, S-9, AROCLOR 1254, Method: STANDARD PLATE): inactive; negative
mutagenic call [12]: inactive; negative. reevaluation of results: negative
mutagenic call (Test System: MOUSE LYMPHOMA, Strain/Indicator: L5178Y (TK+/TK-), Metabolic Activation: RAT, LIVER, S-9, AROCLOR 1254, Method: SUSPENSION/PLATE): inactive; negative. reevaluation of results: negative

Cc1ccc2c(C)c3ccc4ccccc4c3nc2c1
mutagenic call (Test System: AMES SALMONELLA TYPHIMURIUM, Strain/Indicator: TA97A, Metabolic Activation: NONE, Method: PREINCUBATION): active; positive
mutagenic call [1]: active; positive
mutagenic call [3]: active; positive
mutagenic call [8]: active; positive
mutagenic call (Test System: AMES SALMONELLA TYPHIMURIUM, Strain/Indicator: TA102, Metabolic Activation: NONE, Method: PREINCUBATION): active; positive

CC(=O)Oc1cc([N+](=O)[O-])c2ccc3cccc4ccc1c2c43
mutagenic call (Test System: AMES SALMONELLA TYPHIMURIUM, Strain/Indicator: TA98(1,8-DNP6), Metabolic Activation: NONE, Method: PREINCUBATION): active; positive
mutagenic call (Test System: AMES SALMONELLA TYPHIMURIUM, Strain/Indicator: TA98(NR), Metabolic Activation: NONE, Method: PREINCUBATION): active; positive
mutagenic call [1]: active; positive
mutagenic call [2]: inactive; negative
mutagenic call [3]: active; positive
mutagenic call [4]: active; positive

C[Si]1(C)O[Si](C)(C)O[Si](C)(C)O[Si](C)(C)O[Si](C)(C)O1
mutagenic call [5]: inactive; negative
mutagenic call (Test System: AMES SALMONELLA TYPHIMURIUM, Strain/Indicator: TA98, Metabolic Activation: RAT LIVER S-9, AROCLOR 1254, Method: STANDARD PLATE): inactive; negative
mutagenic call [7]: inactive; negative
mutagenic call (Test System: AMES SALMONELLA TYPHIMURIUM, Strain/Indicator: TA100, Metabolic Activation: RAT LIVER S-9, AROCLOR 1254, Method: STANDARD PLATE): inactive; negative
mutagenic call [9]: inactive; negative
mutagenic call (Test System: AMES SALMONELLA TYPHIMURIUM, Strain/Indicator: TA1535, Metabolic Activation: RAT LIVER S-9, AROCLOR 1254, Method: STANDARD PLATE): inactive; negative
mutagenic call [10]: inactive; negative
mutagenic call (Test System: AMES SALMONELLA TYPHIMURIUM, Strain/Indicator: TA1537, Metabolic Activation: RAT LIVER S-9, AROCLOR 1254, Method: STANDARD PLATE): inactive; negative
mutagenic call [11]: inactive; negative
mutagenic call (Test System: AMES SALMONELLA TYPHIMURIUM, Strain/Indicator: TA1538, Metabolic Activation: RAT LIVER S-9, AROCLOR 1254, Method: STANDARD PLATE): inactive; negative
mutagenic call (Test System: E. COLI, Strain/Indicator: P3078 POLA, Metabolic Activation: NONE, Method: SPOT TEST): inactive; negative
mutagenic call (Test System: E. COLI, Strain/Indicator: P3078 POLA, Metabolic Activation: RAT LIVER S-9, AROCLOR 1254, Method: SPOT TEST): inactive; negative
mutagenic call (Test System: E. COLI, Strain/Indicator: W3110, Metabolic Activation: NONE, Method: SPOT TEST): inactive; negative
mutagenic call (Test System: E. COLI, Strain/Indicator: W3110, Metabolic Activation: RAT LIVER S-9, AROCLOR 1254, Method: SPOT TEST): inactive; negative
mutagenic call [12]: inactive; negative
mutagenic call (Test System: MOUSE LYMPHOMA, Strain/Indicator: L5178Y (TK+/TK-), Metabolic Activation: RAT, LIVER, S-9, Method: SUSPENSION/PLATE): inactive; negative
